These results are taken from patent US20220071971A1, “MACROCYCLIC COMPOUNDS AND THEIR USE IN THE TREATMENT OF DISEASE” (NOVARTIS AG, priority 2018, published 2022).

Molecules are shown by their SMILES.

The experiment has as its target T1, delF508-CFTR (Homo sapiens, UniProt P13569, DEL508-508).
T1 construct: expressed in transfected cells
The experiment can be described thus: Measurement of delF508-CFTR-HRP surface expression in CFBE41o- cells. Format: cell-based. The note with it: for Emax: CFBE41o-, read-out: DelF508-CFTR-HRP Amax %; for EC50: HRP-tagged delF508-CFTR surface expression, CFBE41o- cells, 24 h with compound, 10-point curve, highest concentration 10 μM. The method, boiled down: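 CFBE41o- cells stably expressing delF508-CFTR with HRP in the fourth extracellular loop, induced 48 h with 500 ng/mL doxycycline, then exposed to compound (10-point, 3-fold, top 10 μM, ≤0.5% DMSO) for 24 h at 37° C. Surface HRP read by luminescence with cell-impermeant substrate; EC50 by logistic fit, triplicates, efficacy relative to reference corrector.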

[1] abbreviates: efficacy relative to reference compound 3-(6-(1-(2,2-difluorobenzo[d][1,3]dioxol-5-yl)cyclopropane-1-carboxamido)-3-methylpyridin-2-yl)benzoic acid.

T1 sequence (P13569 with tags, fused parts or gaps DEL508-508): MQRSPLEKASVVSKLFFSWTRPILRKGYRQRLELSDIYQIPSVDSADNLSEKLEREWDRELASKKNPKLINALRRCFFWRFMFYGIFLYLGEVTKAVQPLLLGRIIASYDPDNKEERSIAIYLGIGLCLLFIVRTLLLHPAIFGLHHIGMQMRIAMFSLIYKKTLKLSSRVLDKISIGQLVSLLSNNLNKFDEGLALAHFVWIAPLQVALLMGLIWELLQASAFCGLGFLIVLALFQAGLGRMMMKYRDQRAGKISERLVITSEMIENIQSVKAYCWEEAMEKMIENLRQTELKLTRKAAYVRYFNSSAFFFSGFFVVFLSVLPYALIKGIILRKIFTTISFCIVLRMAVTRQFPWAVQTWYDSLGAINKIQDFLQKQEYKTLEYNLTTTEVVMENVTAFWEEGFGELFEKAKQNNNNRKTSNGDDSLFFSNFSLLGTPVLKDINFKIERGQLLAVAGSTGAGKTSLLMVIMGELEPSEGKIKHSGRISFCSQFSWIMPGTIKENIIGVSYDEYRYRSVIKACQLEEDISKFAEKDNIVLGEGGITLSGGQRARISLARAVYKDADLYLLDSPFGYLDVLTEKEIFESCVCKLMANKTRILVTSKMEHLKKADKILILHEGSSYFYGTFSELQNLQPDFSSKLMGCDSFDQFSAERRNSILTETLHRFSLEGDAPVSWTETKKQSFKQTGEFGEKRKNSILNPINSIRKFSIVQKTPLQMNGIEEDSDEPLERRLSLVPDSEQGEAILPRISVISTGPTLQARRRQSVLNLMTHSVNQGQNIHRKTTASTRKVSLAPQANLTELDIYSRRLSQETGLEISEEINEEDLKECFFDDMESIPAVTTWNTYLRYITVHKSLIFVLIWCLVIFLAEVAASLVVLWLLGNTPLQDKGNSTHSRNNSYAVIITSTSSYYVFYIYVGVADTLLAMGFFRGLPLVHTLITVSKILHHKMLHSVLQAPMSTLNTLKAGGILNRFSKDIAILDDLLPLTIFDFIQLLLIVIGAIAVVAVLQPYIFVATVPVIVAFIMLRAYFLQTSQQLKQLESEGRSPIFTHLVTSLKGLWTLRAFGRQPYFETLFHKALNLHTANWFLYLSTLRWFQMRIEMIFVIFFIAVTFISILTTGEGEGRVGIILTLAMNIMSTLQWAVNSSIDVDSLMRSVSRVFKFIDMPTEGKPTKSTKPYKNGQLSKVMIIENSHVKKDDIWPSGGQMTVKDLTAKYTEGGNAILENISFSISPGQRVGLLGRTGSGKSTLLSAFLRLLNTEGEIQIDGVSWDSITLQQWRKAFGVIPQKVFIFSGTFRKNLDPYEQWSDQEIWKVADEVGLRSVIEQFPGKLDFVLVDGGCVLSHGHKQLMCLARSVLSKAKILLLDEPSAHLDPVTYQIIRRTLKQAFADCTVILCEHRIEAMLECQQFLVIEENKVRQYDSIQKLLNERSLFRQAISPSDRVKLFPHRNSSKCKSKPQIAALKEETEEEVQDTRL

The EC50 is the concentration needed to bring the measured effect to its halfway point. As for `CN1CCCCCCN(C)c2ncccc2-c2nc(ccc2C(F)(F)F)NS(=O)(=O)c2cccc1n2` [Compound 8, 6,13-dimethyl-2^3-(trifluoromethyl)-4-thia-3,6,13-triaza-1(3,2),2,5(2,6)-tripyridinacyclotridecaphane 4,4-dioxide], the EC50 was determined as 410 nM. Besides, the Emax under setting [1] was determined as 564%.

Turning to `O=S1(=O)Nc2ccc(C(F)(F)F)c(n2)-c2ccccc2CCC(O)CNc2cccc1n2` (stereo not shown) [Compound 33, 8-hydroxy-2^3-(trifluoromethyl)-4-thia-3,6-diaza-2,5(2,6)-dipyridina-1(1,2)-benzenacyclodecaphane 4,4-dioxide], the EC50 was 3300 nM. The Emax under setting [1] was determined as 119%.

For the compound `O=C(O)CCCN1CCCCCCc2ccccc2-c2nc(ccc2C(F)(F)F)NS(=O)(=O)c2cccc1n2` [Compound 76, 4-(4,4-dioxido-2^3-(trifluoromethyl)-4-thia-3,6-diaza-2,5(2,6)-dipyridina-1(1,2)-benzenacyclododecaphane-6-yl)butanoic acid], the EC50 amounted to 421 nM.

As for `O=C(O)CCCN1CCCCCCCCc2ccccc2-c2nc(ccc2C(F)(F)F)NS(=O)(=O)c2cccc1n2` [Compound 71, 4-(4,4-dioxido-2^3-(trifluoromethyl)-4-thia-3,6-diaza-2,5(2,6)-dipyridina-1(1,2)-benzenacyclotetradecaphane-6-yl)butanoic acid], the EC50 is 291 nM.

Consider `O=C(O)CCC1CCCCc2ccccc2-c2nc(ccc2C(F)(F)F)NS(=O)(=O)c2cccc(n2)O1` (stereo not shown) [Compound 110, 3-(4,4-dioxido-2^3-(trifluoromethyl)-6-oxa-4-thia-3-aza-2,5(2,6)-dipyridina-1(1,2)-benzenacycloundecaphane-7-yl)propanoic acid], for which the EC50 was 477 nM. Further, the Emax under setting [1] was determined as 170%.

For `O=S1(=O)Nc2ccc(C(F)(F)F)c(n2)-c2ccccc2CCCCCN(CCOCCCO)c2cccc1n2` [Compound 14, 6-(2-(3-hydroxypropoxy)ethyl)-2^3-(trifluoromethyl)-4-thia-3,6-diaza-2,5(2,6)-dipyridina-1(1,2)-benzenacycloundecaphane 4,4-dioxide], the EC50 was determined as 334 nM. The Emax under setting [1] was determined as 489%.

Consider `O=C(O)CCCN1CCOCCCc2ccccc2-c2nc(ccc2C(F)(F)F)NS(=O)(=O)c2cccc1n2` [Compound 88, 4-(4,4-dioxido-2^3-(trifluoromethyl)-9-oxa-4-thia-3,6-diaza-2,5(2,6)-dipyridina-1(1,2)-benzenacyclododecaphane-6-yl)butanoic acid], for which the EC50 is 2070 nM.

On to `O=C(O)CCCN1CCCCCc2ccc(F)cc2-c2nc(ccc2C(F)(F)F)NS(=O)(=O)c2cccc1n2` [Compound 86, 4-(1^5-fluoro-4,4-dioxido-2^3-(trifluoromethyl)-4-thia-3,6-diaza-2,5(2,6)-dipyridina-1(1,2)-benzenacycloundecaphane-6-yl)butanoic acid], for which the EC50 was 293 nM.

For `O=S1(=O)Nc2ccc(Cl)c(n2)-c2cccnc2OCCCCCNc2cccc1n2` [Compound 107, 2^3-chloro-12-oxa-4-thia-3,6-diaza-1(3,2),2,5(2,6)-tripyridinacyclododecaphane 4,4-dioxide], the EC50 was 1260 nM. The Emax under setting [1] was determined as 169%.

For the compound `Cc1ccc2nc1-c1ccccc1CCCCCN(CCCCO)c1cccc(n1)S(=O)(=O)N2` [Compound 19, 6-(4-hydroxybutyl)-2^3-methyl-4-thia-3,6-diaza-2,5(2,6)-dipyridina-1(1,2)-benzenacycloundecaphane 4,4-dioxide], the concentration for a half-maximal effect (EC50) stood at 1620 nM. Besides, the Emax under setting [1] came out at 490%.

Take `CN1CCCN(C)c2ncccc2-c2nc(ccc2C(F)(F)F)NS(=O)(=O)c2cccc1n2` [Compound 9, 6,10-dimethyl-2^3-(trifluoromethyl)-4-thia-3,6,10-triaza-1(3,2),2,5(2,6)-tripyridinacyclodecaphane 4,4-dioxide]: the EC50 worked out at 1710 nM. For the same compound, the Emax under setting [1] is 367%.

Regarding `O=S1(=O)Nc2ccc(C(F)(F)F)c(n2)-c2ccccc2CCCCCN(CCCO)c2cccc1n2` [Compound 29, 6-(3-hydroxypropyl)-2^3-(trifluoromethyl)-4-thia-3,6-diaza-2,5(2,6)-dipyridina-1(1,2)-benzenacycloundecaphane 4,4-dioxide], the EC50 is 146 nM. Also, under setting [1], the Emax turned out to be 517%.

On to `O=C(O)C1(CN2CCOCCCc3ccccc3-c3nc(ccc3C(F)(F)F)NS(=O)(=O)c3cccc2n3)CC1` [Compound 95, 1-((4,4-dioxido-2^3-(trifluoromethyl)-9-oxa-4-thia-3,6-diaza-2,5(2,6)-dipyridina-1(1,2)-benzenacyclododecaphane-6-yl)methyl)cyclopropane-1-carboxylic acid], for which the EC50 was 1320 nM.

`O=S1(=O)Nc2ccc(C(F)(F)F)c(n2)-c2ccccc2CCCCCN(CCN2CCNCC2)c2cccc1n2` [Compound 121, 6-(2-(piperazin-1-yl)ethyl)-2^3-(trifluoromethyl)-4-thia-3,6-diaza-2,5(2,6)-dipyridina-1(1,2)-benzenacycloundecaphane 4,4-dioxide]: the concentration for a half-maximal effect (EC50) was determined as 495 nM. The Emax under setting [1] is 348%.

On to `O=C(O)CNCCN1CCCCCc2ccccc2-c2nc(ccc2C(F)(F)F)NS(=O)(=O)c2cccc1n2` [Compound 127, (2-(4,4-dioxido-2^3-(trifluoromethyl)-4-thia-3,6-diaza-2,5(2,6)-dipyridina-1(1,2)-benzenacycloundecaphane-6-yl)ethyl)glycine], for which the EC50 was 3630 nM. Also, the Emax under setting [1] was determined as 93.6%.

As to `O=S1(=O)Nc2ccc(C(F)(F)F)c(n2)-c2ccccc2CCCCCN(CCN2CC(O)C2)c2cccc1n2` [Compound 124, 6-(2-(3-hydroxyazetidin-1-yl)ethyl)-2^3-(trifluoromethyl)-4-thia-3,6-diaza-2,5(2,6)-dipyridina-1(1,2)-benzenacycloundecaphane 4,4-dioxide], the EC50 is 1640 nM. Further, the Emax under setting [1] was found to be 382%.

Take `O=S1(=O)Nc2ccc(C(F)(F)F)c(n2)-c2ccccc2CCCCCN(C[C@H](O)[C@@H](O)CO)c2cccc1n2` [Compound 129, 2^3-(trifluoromethyl)-6-((2S,3S)-2,3,4-trihydroxybutyl)-4-thia-3,6-diaza-2,5(2,6)-dipyridina-1(1,2)-benzenacycloundecaphane 4,4-dioxide]: the concentration for a half-maximal effect (EC50) is 265 nM. The Emax under setting [1] is 506%.

Regarding `COc1ccc2nc1-c1ccccc1CCCCCN(CCCC(=O)O)c1cccc(n1)S(=O)(=O)N2` [Compound 83, 4-(2^3-methoxy-4,4-dioxido-4-thia-3,6-diaza-2,5(2,6)-dipyridina-1(1,2)-benzenacycloundecaphane-6-yl)butanoic acid], the EC50 was determined as 2430 nM. Also, the “DelF508-CFTR-HRP Amax %” value under setting [1] is 163.8%.

Regarding `O=C(O)COCCN1CCCCCc2ccccc2-c2nc(ccc2C(F)(F)F)NS(=O)(=O)c2cccc1n2` [Compound 74, 2-(2-(4,4-dioxido-2^3-(trifluoromethyl)-4-thia-3,6-diaza-2,5(2,6)-dipyridina-1(1,2)-benzenacycloundecaphane-6-yl)ethoxy)acetic acid], the EC50 came to 1990 nM. Moreover, the Emax under setting [1] turned out to be 745%.

Turning to `O=C(O)CC[C@H]1CCCCc2ccccc2-c2nc(ccc2C(F)(F)F)NS(=O)(=O)c2cccc(n2)N1` [Compound 135, (R)-3-(4,4-dioxido-2^3-(trifluoromethyl)-4-thia-3,6-diaza-2,5(2,6)-dipyridina-1(1,2)-benzenacycloundecaphane-7-yl)propanoic acid], the EC50 is 154 nM. For the same compound, the Emax under setting [1] is 651%.

With `O=S1(=O)Nc2ccc(C(F)(F)F)c(n2)-c2ccccc2CCCCN(CCO)c2cccc1n2` [Compound 116, 6-(2-hydroxyethyl)-2^3-(trifluoromethyl)-4-thia-3,6-diaza-2,5(2,6)-dipyridina-1(1,2)-benzenacyclodecaphane 4,4-dioxide], the EC50 worked out at 445 nM. Besides, the Emax under setting [1] is 737%.

`COc1ccc2nc1-c1ccccc1CCCCCN(CCCCO)c1cccc(n1)S(=O)(=O)N2` [Compound 17, 6-(4-hydroxybutyl)-2^3-methoxy-4-thia-3,6-diaza-2,5(2,6)-dipyridina-1(1,2)-benzenacycloundecaphane 4,4-dioxide]: the EC50 came to 2340 nM. The Emax under setting [1] was 347%.

Take `O=S1(=O)Nc2ccc(C(F)(F)F)c(n2)-c2cccnc2OCCCCCOc2cccc1n2` [Compound 103, 2^3-(trifluoromethyl)-6,12-dioxa-4-thia-3-aza-1(3,2),2,5(2,6)-tripyridinacyclododecaphane 4,4-dioxide]: the EC50 stood at 1380 nM. The Emax under setting [1] was 197%.

`O=S1(=O)Nc2ccc(C(F)(F)F)c(n2)-c2ccccc2CCCCCCN(CCCCO)c2cccc1n2` [Compound 16, 6-(4-hydroxybutyl)-2^3-(trifluoromethyl)-4-thia-3,6-diaza-2,5(2,6)-dipyridina-1(1,2)-benzenacyclododecaphane 4,4-dioxide]: the EC50 is 303 nM.

Regarding `NCCN1CCCCCc2ccccc2-c2nc(ccc2C(F)(F)F)NS(=O)(=O)c2cccc1n2` [Compound 132, 6-(2-aminoethyl)-2^3-(trifluoromethyl)-4-thia-3,6-diaza-2,5(2,6)-dipyridina-1(1,2)-benzenacycloundecaphane 4,4-dioxide], the concentration for a half-maximal effect (EC50) was 2670 nM. Under setting [1], the Emax was 259%.

On to `O=S1(=O)Nc2ccc(C(F)(F)F)c(n2)-c2cc(F)ccc2OCCCCN(CCCCO)c2cccc1n2` [Compound 23, 1^5-fluoro-6-(4-hydroxybutyl)-2^3-(trifluoromethyl)-11-oxa-4-thia-3,6-diaza-2,5(2,6)-dipyridina-1(1,2)-benzenacycloundecaphane 4,4-dioxide], for which the EC50 amounted to 690 nM. Also, the Emax under setting [1] was 592%.
